Consider eight molecules from PubChem BioAssay (NCI).

Each structure is given as a SMILES string.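 Where inhibition never reached the appropriate level, the endpoint shown equals the highest concentration tested. Otherwise, values were interpolated linearly from a five-concentration, 48-hour dose response in 96-well plates. TGI is the concentration that stops growth completely.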

Some test systems named below: 786-0 renal; A498 renal; DU-145 prostate; HCT-15 colon; HOP-62 NSCLC; HS 578T breast; NCI-H226 lung; PC-3 prostate; RXF 393 renal; SF-268 CNS; SF-539 CNS; SK-OV-3 ovarian; T-47D breast; TK-10 renal; UACC-257 melanoma; CCRF-CEM leukemia; HOP-92 NSCLC; K-562 leukemia; MOLT-4 leukemia.
Experiment in all cases: growth of human tumour cells (NCI), 48 h

Turning to `O=[N+]([O-])c1ccc2nc(/C=C(\O)c3ccccc3)c(NC34CC5CC(CC(C5)C3)C4)nc2c1`, the TGI in the assay on 786-0 renal, in the assay with A498 renal, in the assay with DU-145 prostate, in the assay on HCT-15 colon, in the assay with HOP-62 NSCLC and with HS 578T breast was > 10 µM in each case. The TGI with NCI-H226 lung, in the assay on PC-3 prostate, in the assay on RXF 393 renal, in the assay with SF-268 CNS, with SF-539 CNS and in the assay with SK-OV-3 ovarian was > 10 µM in each case. The TGI in the assay on T-47D breast, in the assay on TK-10 renal and in the assay with UACC-257 melanoma was > 10 µM throughout.

For the molecule `Cc1cc(=O)[nH]c(Sc2ccc([N+](=O)[O-])cc2[N+](=O)[O-])n1`, the TGI in the assay with 786-0 renal is 32.9 µM; with A498 renal it was > 100 µM; in the assay with CCRF-CEM leukemia, 23.1 µM; in the assay on DU-145 prostate, 43.5 µM; with HCT-15 colon, 28.4 µM; with HOP-62 NSCLC, > 58.5 µM. Moreover, the TGI with HOP-92 NSCLC is 19.2 µM; in the assay on HS 578T breast it was > 63.4 µM; in the assay with K-562 leukemia it was > 100 µM; with MOLT-4 leukemia, > 100 µM; in the assay with NCI-H226 lung, 40.9 µM; with PC-3 prostate, 49.7 µM. The TGI with RXF 393 renal is 26.1 µM; in the assay on SF-268 CNS it was > 54.3 µM; in the assay on SK-OV-3 ovarian, > 100 µM; in the assay with T-47D breast it was 43 µM; in the assay with TK-10 renal it was 29.6 µM; in the assay with UACC-257 melanoma, 44.7 µM.

For `O=C(/C=C/c1ccc(O)c(O)c1)O[C@H]1CCCC[C@@H]1OC(=O)/C=C/c1ccc(O)c(O)c1`, the TGI with 786-0 renal was found to be 46 µM; in the assay with A498 renal, 43.2 µM; with CCRF-CEM leukemia it was 61 µM; with DU-145 prostate, 41.8 µM; in the assay with HCT-15 colon, 35.7 µM; in the assay with HOP-62 NSCLC, 41.1 µM. The TGI with HOP-92 NSCLC is 52.1 µM; in the assay on HS 578T breast, > 100 µM; with K-562 leukemia, > 100 µM; with MOLT-4 leukemia it was > 100 µM; with PC-3 prostate, > 100 µM; with RXF 393 renal, 27.6 µM. The TGI in the assay with SF-268 CNS is 38.8 µM; in the assay on SF-539 CNS it was > 100 µM; in the assay with SK-OV-3 ovarian, 41.3 µM; in the assay on T-47D breast, 98.8 µM; in the assay on TK-10 renal, 57.7 µM; with UACC-257 melanoma, 77 µM.

On to `COc1ccc(-c2n[nH]c3nc4ccccc4n3c2=O)cc1`, for which the TGI with 786-0 renal, in the assay on A498 renal, in the assay on CCRF-CEM leukemia, with DU-145 prostate, with HCT-15 colon and in the assay on HOP-62 NSCLC was > 100 µM each time. In addition, the TGI with HOP-92 NSCLC, with HS 578T breast, in the assay with MOLT-4 leukemia, in the assay on NCI-H226 lung, in the assay on PC-3 prostate and in the assay on RXF 393 renal was > 100 µM in each case. The TGI with SF-268 CNS, in the assay with SF-539 CNS, in the assay with T-47D breast, in the assay on TK-10 renal and in the assay with UACC-257 melanoma was > 100 µM throughout.

Turning to `N#Cc1n[nH]n(-c2ccccc2)c1=O`, the TGI in the assay with 786-0 renal, with A498 renal, with DU-145 prostate, with HCT-15 colon, with HOP-62 NSCLC and in the assay on HS 578T breast was > 100 µM in each case. In addition, the TGI in the assay with K-562 leukemia, in the assay on MOLT-4 leukemia, in the assay with NCI-H226 lung, in the assay with PC-3 prostate, in the assay with RXF 393 renal and in the assay with SF-268 CNS was > 100 µM throughout. The TGI in the assay with SF-539 CNS, in the assay on SK-OV-3 ovarian, in the assay on T-47D breast, in the assay with TK-10 renal and in the assay on UACC-257 melanoma was > 100 µM in each case.

For `Nc1nc(Cl)cc(NCC2(CO)CC=CC2)n1`, the TGI in the assay on 786-0 renal, with CCRF-CEM leukemia, with DU-145 prostate, with HCT-15 colon, in the assay on HOP-62 NSCLC and in the assay with HOP-92 NSCLC was > 100 µM each time. For the same molecule, the TGI in the assay with HS 578T breast, in the assay with K-562 leukemia, with MOLT-4 leukemia, in the assay on NCI-H226 lung, in the assay on PC-3 prostate and in the assay on RXF 393 renal was > 100 µM throughout. The TGI with SF-268 CNS, in the assay with SF-539 CNS, with SK-OV-3 ovarian, in the assay with T-47D breast, with TK-10 renal and in the assay with UACC-257 melanoma was > 100 µM each time.

On to `O=C1c2ccccc2C(=O)c2c1sc1nc3ccccc3n21`, for which the TGI with 786-0 renal was 4.46 µM; in the assay on A498 renal it was 23.3 µM; with CCRF-CEM leukemia, 5.48 µM; in the assay with DU-145 prostate, 3.13 µM; in the assay on HOP-92 NSCLC, 74.1 µM; with HS 578T breast, 0.0525 µM. The TGI in the assay with K-562 leukemia was determined as 5.09 µM; with MOLT-4 leukemia, 4.89 µM; with NCI-H226 lung, 21.2 µM; with PC-3 prostate, 6.79 µM; with RXF 393 renal, 3.31 µM; in the assay with SF-268 CNS, 3.9 µM. For the same molecule, the TGI in the assay on SF-539 CNS turned out to be 3.81 µM; with SK-OV-3 ovarian, 19.1 µM; in the assay with T-47D breast, 9.02 µM; in the assay on TK-10 renal, 12.7 µM; in the assay with UACC-257 melanoma, 3.64 µM.

Consider `CC(=O)O[C@H]1C(=O)[C@@]2(C)[C@H]([C@H](OC(=O)c3ccccc3)[C@]3(O)C[C@H](OC(=O)[C@H](O)[C@@H](NC(=O)C(C)(O)C(C)O)c4ccccc4)C(C)=C1C3(C)C)[C@]1(OC(C)=O)CO[C@@H]1C[C@@H]2O` (some centres not stated), for which the TGI was > 50 µM in the assay on 786-0 renal; > 50 µM with A498 renal; > 50 µM with CCRF-CEM leukemia; > 12.1 µM with DU-145 prostate; > 50 µM in the assay with HCT-15 colon; 5.21 µM in the assay on HOP-62 NSCLC. In addition, the TGI with HS 578T breast was 0.737 µM; in the assay with K-562 leukemia, > 50 µM; in the assay with MOLT-4 leukemia, > 50 µM; with PC-3 prostate, > 50 µM; in the assay with RXF 393 renal, 1.81 µM; in the assay on SF-268 CNS, > 50 µM. Besides, the TGI is 0.49 µM in the assay on SF-539 CNS; 10.9 µM in the assay on SK-OV-3 ovarian; > 50 µM in the assay with T-47D breast; > 50 µM with TK-10 renal; > 50 µM with UACC-257 melanoma.
